Measured values taken from PubChem BioAssay (NCI).
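Dose response: 5 concentrations. Exposure: 48 h. Format: 96-well plates. Endpoint: linear interpolation; highest concentration if not reached. GI50 = concentration required for 50% inhibition of growth. At the TGI there is no net growth.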

Legend:
Experiment in all cases: DTP human tumour cell line panel, 48 h
SR leukemia = test system: SR leukemia
SNB-75 CNS = test system: SNB-75 CNS
TK-10 renal = test system: TK-10 renal
BT-549 breast = test system: BT-549 breast
SW-620 colon = test system: SW-620 colon
NCI-H460 lung = test system: NCI-H460 lung
T-47D breast = test system: T-47D breast
SK-OV-3 ovarian = test system: SK-OV-3 ovarian
UO-31 renal = test system: UO-31 renal
K-562 leukemia = test system: K-562 leukemia
CAKI-1 renal = test system: CAKI-1 renal
A549 NSCLC = test system: A549 NSCLC
HCT-15 colon = test system: HCT-15 colon
SF-295 CNS = test system: SF-295 CNS
RXF 393 renal = test system: RXF 393 renal
NCI/ADR-RES ovarian = test system: NCI/ADR-RES ovarian
OVCAR-5 ovarian = test system: OVCAR-5 ovarian
IGROV1 ovarian = test system: IGROV1 ovarian
SK-MEL-28 melanoma = test system: SK-MEL-28 melanoma
MDA-MB-435 = test system: MDA-MB-435
M14 melanoma = test system: M14 melanoma
NCI-H522 lung = test system: NCI-H522 lung
SF-539 CNS = test system: SF-539 CNS
DU-145 prostate = test system: DU-145 prostate
OVCAR-8 ovarian = test system: OVCAR-8 ovarian
A498 renal = test system: A498 renal
HL-60(TB) leukemia = test system: HL-60(TB) leukemia
OVCAR-4 ovarian = test system: OVCAR-4 ovarian
UACC-257 melanoma = test system: UACC-257 melanoma
SNB-19 CNS = test system: SNB-19 CNS
LOX IMVI melanoma = test system: LOX IMVI melanoma
MOLT-4 leukemia = test system: MOLT-4 leukemia
RPMI-8226 leukemia = test system: RPMI-8226 leukemia
SK-MEL-2 melanoma = test system: SK-MEL-2 melanoma
MDA-MB-231 breast = test system: MDA-MB-231 breast
HOP-92 NSCLC = test system: HOP-92 NSCLC
786-0 renal = test system: 786-0 renal
NCI-H23 lung = test system: NCI-H23 lung
HOP-62 NSCLC = test system: HOP-62 NSCLC
MALME-3M melanoma = test system: MALME-3M melanoma
U251 CNS = test system: U251 CNS
HS 578T breast = test system: HS 578T breast
SF-268 CNS = test system: SF-268 CNS
OVCAR-3 ovarian = test system: OVCAR-3 ovarian
NCI-H226 lung = test system: NCI-H226 lung
CCRF-CEM leukemia = test system: CCRF-CEM leukemia
HT29 colon = test system: HT29 colon
HCC-2998 colon = test system: HCC-2998 colon
MCF7 breast = test system: MCF7 breast
ACHN renal = test system: ACHN renal
COLO 205 colon = test system: COLO 205 colon
HCT-116 colon = test system: HCT-116 colon
KM12 colon = test system: KM12 colon
SK-MEL-5 melanoma = test system: SK-MEL-5 melanoma
EKVX NSCLC = test system: EKVX NSCLC
SN12C renal = test system: SN12C renal
UACC-62 melanoma = test system: UACC-62 melanoma
PC-3 prostate = test system: PC-3 prostate

In the case of O=C(c1ccco1)c1nc2cc(F)ccc2[n+]([O-])c1C(F)(F)F, the GI50 (SR leukemia) is reported as 17.4 µM, the TGI (SR leukemia) is reported as 60.9 µM and the GI50 (SNB-75 CNS) is reported as 24.5 µM. For the same molecule, the TGI (SNB-75 CNS) was 86.6 µM, the GI50 (TK-10 renal) was 85.3 µM and the TGI (TK-10 renal) was > 100 µM. The GI50 (BT-549 breast) was 22.2 µM, the TGI (BT-549 breast) was 51.6 µM and the GI50 (SW-620 colon) was > 100 µM. For the same molecule, the TGI (SW-620 colon) was > 100 µM, the GI50 (NCI-H460 lung) was 41.8 µM and the TGI (NCI-H460 lung) was > 100 µM. The GI50 (T-47D breast) was 30.6 µM, the TGI (T-47D breast) was > 100 µM and the GI50 (SK-OV-3 ovarian) was 35.3 µM. For the same molecule, the TGI (SK-OV-3 ovarian) was > 100 µM, the GI50 (UO-31 renal) was 28.1 µM and the TGI (UO-31 renal) was > 100 µM. It also gave a GI50 (K-562 leukemia) of 9.59 µM, a TGI (K-562 leukemia) of 47.9 µM and a GI50 (CAKI-1 renal) of 15.8 µM. For the same molecule, the TGI (CAKI-1 renal) was 30.8 µM, the GI50 (A549 NSCLC) was 34.6 µM and the TGI (A549 NSCLC) was > 100 µM. It also gave a GI50 (HCT-15 colon) of 17.8 µM, a TGI (HCT-15 colon) of 39.1 µM and a GI50 (SF-295 CNS) of 51.8 µM. For the same molecule, the TGI (SF-295 CNS) was > 100 µM, the GI50 (RXF 393 renal) was 19.2 µM and the TGI (RXF 393 renal) was 52.7 µM. For the same molecule, the GI50 (NCI/ADR-RES ovarian) was 21.5 µM, the TGI (NCI/ADR-RES ovarian) was 66.5 µM and the GI50 (OVCAR-5 ovarian) was 26.7 µM. For the same molecule, the TGI (OVCAR-5 ovarian) was 90.6 µM, the GI50 (IGROV1 ovarian) was 17.9 µM and the TGI (IGROV1 ovarian) was 36.7 µM. The GI50 (SK-MEL-28 melanoma) was 29.4 µM, the TGI (SK-MEL-28 melanoma) was 95.4 µM and the GI50 (MDA-MB-435) was 19.2 µM. For the same molecule, the TGI (MDA-MB-435) was 44 µM, the GI50 (M14 melanoma) was 17.6 µM and the TGI (M14 melanoma) was 38.7 µM. The GI50 (NCI-H522 lung) was 14.7 µM, the TGI (NCI-H522 lung) was 32.2 µM and the GI50 (SF-539 CNS) was > 100 µM. The TGI (SF-539 CNS) was > 100 µM, the GI50 (DU-145 prostate) was 38.8 µM and the TGI (DU-145 prostate) was > 100 µM. The GI50 (OVCAR-8 ovarian) was 22.5 µM, the TGI (OVCAR-8 ovarian) was 62 µM and the GI50 (A498 renal) was 86.6 µM. For the same molecule, the TGI (A498 renal) was > 100 µM, the GI50 (HL-60(TB) leukemia) was 18.4 µM and the TGI (HL-60(TB) leukemia) was 49.2 µM. For the same molecule, the GI50 (OVCAR-4 ovarian) was 21.5 µM, the TGI (OVCAR-4 ovarian) was 50.5 µM and the GI50 (UACC-257 melanoma) was 22.5 µM. For the same molecule, the TGI (UACC-257 melanoma) was 67.3 µM, the GI50 (SNB-19 CNS) was 47.4 µM and the TGI (SNB-19 CNS) was > 100 µM. For the same molecule, the GI50 (LOX IMVI melanoma) was 19.4 µM, the TGI (LOX IMVI melanoma) was 39.2 µM and the GI50 (MOLT-4 leukemia) was 24.8 µM. For the same molecule, the TGI (MOLT-4 leukemia) was 66.3 µM, the GI50 (RPMI-8226 leukemia) was 35.8 µM and the TGI (RPMI-8226 leukemia) was > 100 µM. It also gave a GI50 (SK-MEL-2 melanoma) of 20.8 µM, a TGI (SK-MEL-2 melanoma) of 50.3 µM and a GI50 (MDA-MB-231 breast) of 22.6 µM. The TGI (MDA-MB-231 breast) was 60.5 µM, the GI50 (HOP-92 NSCLC) was 22.6 µM and the TGI (HOP-92 NSCLC) was 58.7 µM. The GI50 (786-0 renal) was 53.2 µM, the TGI (786-0 renal) was > 100 µM and the GI50 (NCI-H23 lung) was 19.1 µM. For the same molecule, the TGI (NCI-H23 lung) was 42.7 µM, the GI50 (HOP-62 NSCLC) was 81.4 µM and the TGI (HOP-62 NSCLC) was > 100 µM. For the same molecule, the GI50 (MALME-3M melanoma) was 17.4 µM, the TGI (MALME-3M melanoma) was 33.9 µM and the GI50 (U251 CNS) was 35.5 µM. The TGI (U251 CNS) was > 100 µM, the GI50 (HS 578T breast) was 97.4 µM and the TGI (HS 578T breast) was > 100 µM. For the same molecule, the GI50 (SF-268 CNS) was 39.2 µM, the TGI (SF-268 CNS) was > 100 µM and the GI50 (OVCAR-3 ovarian) was 20.8 µM. The TGI (OVCAR-3 ovarian) was 46.7 µM, the GI50 (NCI-H226 lung) was 99.1 µM and the TGI (NCI-H226 lung) was > 100 µM. The GI50 (CCRF-CEM leukemia) was 29.9 µM, the TGI (CCRF-CEM leukemia) was > 100 µM and the GI50 (HT29 colon) was 24 µM. It also gave a TGI (HT29 colon) of 79 µM, a GI50 (HCC-2998 colon) of 17 µM and a TGI (HCC-2998 colon) of 32 µM. The GI50 (MCF7 breast) was 56.2 µM, the TGI (MCF7 breast) was > 100 µM and the GI50 (ACHN renal) was 27.6 µM. For the same molecule, the TGI (ACHN renal) was > 100 µM, the GI50 (COLO 205 colon) was 16 µM and the TGI (COLO 205 colon) was 32.7 µM. For the same molecule, the GI50 (HCT-116 colon) was 34 µM, the TGI (HCT-116 colon) was > 100 µM and the GI50 (KM12 colon) was 57 µM. For the same molecule, the TGI (KM12 colon) was > 100 µM, the GI50 (SK-MEL-5 melanoma) was > 100 µM and the TGI (SK-MEL-5 melanoma) was > 100 µM. It also gave a GI50 (EKVX NSCLC) of 18.6 µM, a TGI (EKVX NSCLC) of 39.9 µM and a GI50 (SN12C renal) of 44.4 µM. The TGI (SN12C renal) was > 100 µM, the GI50 (UACC-62 melanoma) was 24.8 µM and the TGI (UACC-62 melanoma) was 68.2 µM. For the same molecule, the GI50 (PC-3 prostate) was 35.3 µM and the TGI (PC-3 prostate) was > 100 µM.
